{"source": "the NIST ThermoML archive (doi:10.1016/j.jct.2014.12.027)", "experiment": "activity coefficient (dimensionless); of the first substance listed, at infinite dilution; xn = mol fraction of the nth substance listed", "conditions": "101 kPa, Liquid, Chromatography, x1 = 0", "note": "Numbers after ± are expanded uncertainties."}
{"smiles": "c1ccccc1", "note": "[benzene] + CCCC[n+]1ccc(C)cc1.N#CC(=C=[N-])C#N", "values": [{"measurement": "activity coefficient", "setting": "318.15 K", "result": "0.889 ± 0.057"}, {"measurement": "activity coefficient", "setting": "328.15 K", "result": "0.916 ± 0.058"}, {"measurement": "activity coefficient", "setting": "338.15 K", "result": "0.937 ± 0.059"}, {"measurement": "activity coefficient", "setting": "348.15 K", "result": "0.976 ± 0.061"}, {"measurement": "activity coefficient", "setting": "358.15 K", "result": "1 ± 0.06"}, {"measurement": "activity coefficient", "setting": "368.15 K", "result": "1.02 ± 0.06"}]}
{"smiles": "c1ccsc1", "note": "[thiophene] + CCCC[n+]1ccc(C)cc1.N#CC(=C=[N-])C#N", "values": [{"measurement": "activity coefficient", "setting": "318.15 K", "result": "0.636 ± 0.044"}, {"measurement": "activity coefficient", "setting": "328.15 K", "result": "0.658 ± 0.045"}, {"measurement": "activity coefficient", "setting": "338.15 K", "result": "0.678 ± 0.046"}, {"measurement": "activity coefficient", "setting": "348.15 K", "result": "0.704 ± 0.047"}, {"measurement": "activity coefficient", "setting": "358.15 K", "result": "0.733 ± 0.049"}, {"measurement": "activity coefficient", "setting": "368.15 K", "result": "0.748 ± 0.049"}]}
{"smiles": "C=CCCCCCC", "note": "[oct-1-ene] + CCCC[n+]1ccc(C)cc1.N#CC(=C=[N-])C#N", "values": [{"measurement": "activity coefficient", "setting": "318.15 K", "result": "21.3 ± 1.5"}, {"measurement": "activity coefficient", "setting": "328.15 K", "result": "20.3 ± 1.4"}, {"measurement": "activity coefficient", "setting": "338.15 K", "result": "19.7 ± 1.3"}, {"measurement": "activity coefficient", "setting": "348.15 K", "result": "18.9 ± 1.3"}, {"measurement": "activity coefficient", "setting": "358.15 K", "result": "18.3 ± 1.3"}, {"measurement": "activity coefficient", "setting": "368.15 K", "result": "17.8 ± 1.2"}]}
{"smiles": "Cc1ccc(C)cc1", "note": "[1,4-dimethylbenzene] + CCCC[n+]1ccc(C)cc1.N#CC(=C=[N-])C#N", "values": [{"measurement": "activity coefficient", "setting": "328.15 K", "result": "1.66 ± 0.11"}, {"measurement": "activity coefficient", "setting": "338.15 K", "result": "1.71 ± 0.11"}, {"measurement": "activity coefficient", "setting": "348.15 K", "result": "1.79 ± 0.12"}, {"measurement": "activity coefficient", "setting": "358.15 K", "result": "1.84 ± 0.12"}, {"measurement": "activity coefficient", "setting": "368.15 K", "result": "1.9 ± 0.13"}]}
{"smiles": "CCCO", "note": "[propan-1-ol] + CCCC[n+]1ccc(C)cc1.N#CC(=C=[N-])C#N", "values": [{"measurement": "activity coefficient", "setting": "318.15 K", "result": "1.06 ± 0.07"}, {"measurement": "activity coefficient", "setting": "328.15 K", "result": "1.01 ± 0.06"}, {"measurement": "activity coefficient", "setting": "338.15 K", "result": "0.965 ± 0.061"}, {"measurement": "activity coefficient", "setting": "348.15 K", "result": "0.936 ± 0.059"}, {"measurement": "activity coefficient", "setting": "358.15 K", "result": "0.906 ± 0.057"}, {"measurement": "activity coefficient", "setting": "368.15 K", "result": "0.872 ± 0.056"}]}
{"smiles": "C#CCCCCC", "note": "[1-heptyne] + CCCC[n+]1ccc(C)cc1.N#CC(=C=[N-])C#N", "values": [{"measurement": "activity coefficient", "setting": "318.15 K", "result": "4.09 ± 0.28"}, {"measurement": "activity coefficient", "setting": "328.15 K", "result": "4.15 ± 0.28"}, {"measurement": "activity coefficient", "setting": "338.15 K", "result": "4.22 ± 0.29"}, {"measurement": "activity coefficient", "setting": "348.15 K", "result": "4.29 ± 0.29"}, {"measurement": "activity coefficient", "setting": "358.15 K", "result": "4.34 ± 0.3"}, {"measurement": "activity coefficient", "setting": "368.15 K", "result": "4.43 ± 0.3"}]}
{"smiles": "CCCCO", "note": "[butan-1-ol] + CCCC[n+]1ccc(C)cc1.N#CC(=C=[N-])C#N", "values": [{"measurement": "activity coefficient", "setting": "318.15 K", "result": "1.31 ± 0.09"}, {"measurement": "activity coefficient", "setting": "328.15 K", "result": "1.23 ± 0.08"}, {"measurement": "activity coefficient", "setting": "338.15 K", "result": "1.17 ± 0.07"}, {"measurement": "activity coefficient", "setting": "348.15 K", "result": "1.13 ± 0.07"}, {"measurement": "activity coefficient", "setting": "358.15 K", "result": "1.09 ± 0.07"}, {"measurement": "activity coefficient", "setting": "368.15 K", "result": "1.05 ± 0.07"}]}
{"smiles": "C=CCCCC", "note": "[hex-1-ene] + CCCC[n+]1ccc(C)cc1.N#CC(=C=[N-])C#N", "values": [{"measurement": "activity coefficient", "setting": "318.15 K", "result": "11.1 ± 0.8"}, {"measurement": "activity coefficient", "setting": "328.15 K", "result": "10.5 ± 0.7"}, {"measurement": "activity coefficient", "setting": "338.15 K", "result": "10.2 ± 0.7"}, {"measurement": "activity coefficient", "setting": "348.15 K", "result": "9.72 ± 0.66"}, {"measurement": "activity coefficient", "setting": "358.15 K", "result": "9.17 ± 0.63"}, {"measurement": "activity coefficient", "setting": "368.15 K", "result": "8.75 ± 0.6"}]}
{"smiles": "C1CCCCC1", "note": "[cyclohexane] + CCCC[n+]1ccc(C)cc1.N#CC(=C=[N-])C#N", "values": [{"measurement": "activity coefficient", "setting": "318.15 K", "result": "11.1 ± 0.8"}, {"measurement": "activity coefficient", "setting": "328.15 K", "result": "10.5 ± 0.7"}, {"measurement": "activity coefficient", "setting": "338.15 K", "result": "10 ± 0.7"}, {"measurement": "activity coefficient", "setting": "348.15 K", "result": "9.57 ± 0.65"}, {"measurement": "activity coefficient", "setting": "358.15 K", "result": "9.07 ± 0.62"}, {"measurement": "activity coefficient", "setting": "368.15 K", "result": "8.65 ± 0.59"}]}
{"smiles": "CCCCCC", "note": "[hexane] + CCCC[n+]1ccc(C)cc1.N#CC(=C=[N-])C#N", "values": [{"measurement": "activity coefficient", "setting": "318.15 K", "result": "24.3 ± 1.7"}, {"measurement": "activity coefficient", "setting": "328.15 K", "result": "23 ± 1.6"}, {"measurement": "activity coefficient", "setting": "338.15 K", "result": "22.1 ± 1.5"}, {"measurement": "activity coefficient", "setting": "348.15 K", "result": "20.8 ± 1.4"}, {"measurement": "activity coefficient", "setting": "358.15 K", "result": "20 ± 1.4"}, {"measurement": "activity coefficient", "setting": "368.15 K", "result": "19.1 ± 1.3"}]}
{"smiles": "CCOC(C)=O", "note": "[ethyl acetate] + CCCC[n+]1ccc(C)cc1.N#CC(=C=[N-])C#N", "values": [{"measurement": "activity coefficient", "setting": "318.15 K", "result": "1.3 ± 0.08"}, {"measurement": "activity coefficient", "setting": "328.15 K", "result": "1.33 ± 0.09"}, {"measurement": "activity coefficient", "setting": "338.15 K", "result": "1.36 ± 0.09"}, {"measurement": "activity coefficient", "setting": "348.15 K", "result": "1.4 ± 0.09"}, {"measurement": "activity coefficient", "setting": "358.15 K", "result": "1.42 ± 0.09"}, {"measurement": "activity coefficient", "setting": "368.15 K", "result": "1.46 ± 0.1"}]}
{"smiles": "Cc1cccc(C)c1", "note": "[1,3-dimethylbenzene] + CCCC[n+]1ccc(C)cc1.N#CC(=C=[N-])C#N", "values": [{"measurement": "activity coefficient", "setting": "328.15 K", "result": "1.71 ± 0.11"}, {"measurement": "activity coefficient", "setting": "338.15 K", "result": "1.76 ± 0.12"}, {"measurement": "activity coefficient", "setting": "348.15 K", "result": "1.82 ± 0.12"}, {"measurement": "activity coefficient", "setting": "358.15 K", "result": "1.88 ± 0.13"}, {"measurement": "activity coefficient", "setting": "368.15 K", "result": "1.94 ± 0.13"}]}
{"smiles": "C1COCCO1", "note": "[1,4-dioxane] + CCCC[n+]1ccc(C)cc1.N#CC(=C=[N-])C#N", "values": [{"measurement": "activity coefficient", "setting": "318.15 K", "result": "0.573 ± 0.041"}, {"measurement": "activity coefficient", "setting": "328.15 K", "result": "0.601 ± 0.042"}, {"measurement": "activity coefficient", "setting": "338.15 K", "result": "0.624 ± 0.043"}, {"measurement": "activity coefficient", "setting": "348.15 K", "result": "0.656 ± 0.045"}, {"measurement": "activity coefficient", "setting": "358.15 K", "result": "0.68 ± 0.046"}, {"measurement": "activity coefficient", "setting": "368.15 K", "result": "0.708 ± 0.047"}]}
{"smiles": "CC#N", "note": "[acetonitrile] + CCCC[n+]1ccc(C)cc1.N#CC(=C=[N-])C#N", "values": [{"measurement": "activity coefficient", "setting": "318.15 K", "result": "0.584 ± 0.041"}, {"measurement": "activity coefficient", "setting": "328.15 K", "result": "0.59 ± 0.04"}, {"measurement": "activity coefficient", "setting": "338.15 K", "result": "0.593 ± 0.042"}, {"measurement": "activity coefficient", "setting": "348.15 K", "result": "0.599 ± 0.042"}, {"measurement": "activity coefficient", "setting": "358.15 K", "result": "0.604 ± 0.042"}, {"measurement": "activity coefficient", "setting": "368.15 K", "result": "0.613 ± 0.043"}]}
{"smiles": "CCCCCCCC", "note": "[octane] + CCCC[n+]1ccc(C)cc1.N#CC(=C=[N-])C#N", "values": [{"measurement": "activity coefficient", "setting": "318.15 K", "result": "46.4 ± 3.2"}, {"measurement": "activity coefficient", "setting": "328.15 K", "result": "43.2 ± 3"}, {"measurement": "activity coefficient", "setting": "338.15 K", "result": "41.1 ± 2.8"}, {"measurement": "activity coefficient", "setting": "348.15 K", "result": "38.4 ± 2.6"}, {"measurement": "activity coefficient", "setting": "358.15 K", "result": "36.3 ± 2.5"}, {"measurement": "activity coefficient", "setting": "368.15 K", "result": "34.6 ± 2.4"}]}
